Experimental data published in paper PMC12257394, “Design, Synthesis, and Biological Evaluation of Ferrocenyl–Cyclo-(Gly‑L‑Pro) Hybrids Sensitizing Multidrug-Resistant Cancer Cells to Anticancer Agents” (ACS Medicinal Chemistry Letters, 2025).
pIC50: −log10 of the molar value.

Key:
Type in all cases: cell-based, human
[1] = system: SW620 cells; assay: Neutral red uptake viability assay, SW620; conditions: for survival rate: 72 h, n = 3, ± SD; for pIC50: SW620, 72 h, n = 3, read-out: Cytotoxic activity IC50 (95% CI)
Procedure: (§1) To evaluate this aspect, we investigated the viability of SW620 colon cancer cells and their multidrug-resistant variants (overexpressing ABCB1, ABCC1, and ABCG2) exposed to 1 and 10 μM 4a–e using a neutral red uptake assay (Table ). In general, compounds 4a–e exerted little or no cytotoxic effect on either SW620 or multidrug-resistant sublines even at 10 μM, with the remarkable exception of SW620C (cisplatin-selected variant of SW620) cells, which turned out to be relatively susceptible toward ferrocenyl 4a–c. […] This trend may reflect steric or electronic contributions to cellular uptake or interaction with intracellular targets. […] However, since E/Z isomeric data are currently available only for compound 4c, this hypothesis requires validation. To quantify this effect, IC50 values were determined (Table ). […]
(§2) The normal lung fibroblast MRC-5 and colorectal adenocarcinoma SW620 cell lines used in this experiment were purchased from American Type Culture Collection (USA) via LGC […]
(§3) Standards. Multidrug-resistant variants of SW620 cells were developed in our laboratory as described previously.10, 11 All cells were cultured under standard conditions (37°C, 5% CO2, 100% humidity) in high-glucose DMEM supplemented with GlutaMaxTM, HEPES (ThermoFisher Scientific, USA), and 10% fetal bovine serum (EURx, Poland). Cells were routinely tested for potential Mycoplasma contamination using the MycoProbe Mycoplasma Detection kit (R&D System, USA).
(§4) In total, 104 cells in 100 µL of complete medium were plated per well of a 96-well plate and left overnight to allow cells to adhere to the surface. Then, the cells were exposed to a desired concentration of tested compound(s). Stock solutions were prepared in DMSO and used immediately. The final DMSO concentration was constant and nontoxic (0.1% v/v). After 70-h incubation, neutral red was added to the final concentration of 1 mM. After another 2 h, the medium was aspirated, and cells were washed twice with PBS. Dye was released using 100 µL of a solubilizer (1% acetic acid in 50% ethanol) on an orbital shaker (10 min). Absorbance was read at 540 nm using EnVision Multilabel Plate Reader (Perkin Elmer, USA). Results were expressed as % of control. The IC50 parameters were calculated using GraphPad Prism version 10 (GraphPad Software, Boston, Massachusetts USA). […]
(§5) All experiments were performed in triplicate (n = 3).

[2] = system: SW620C cells (cisplatin-resistant); assay: Neutral red uptake viability assay, SW620C; conditions: for survival rate / pIC50 / Cytotoxic activity IC50 (95% CI): SW620C, 72 h; for survival rate: n = 3, ± SD; for pIC50 / Cytotoxic activity IC50 (95% CI): n = 3; for pIC50: read-out: Cytotoxic activity IC50 (95% CI)
Procedure: as §2
as §3, with “described” for “Standards. Multidrug-resistant variants of SW620 cells were developed in our laboratory as described”
as §4
IC₅₀ values were determined in […]
as §5

[3] = system: SW620E cells (etoposide-resistant); assay: Neutral red uptake viability assay, SW620E; conditions: 72 h; for survival rate: n = 3, ± SD; for pIC50: n = 3, read-out: Cytotoxic activity IC50 (95% CI)
Procedure: as §1, §2, §3, §4, §5

[4] = system: ABCB1-overexpressing SW620D cells; assay: MDR reversal assay (ERP), SW620D; conditions: for ERP value, doxorubicin + compound: SW620D (xlsx); for ERP = IC50(drug)MDR/IC50(drug+4)MDR: doxorubicin, SW620D
Text: We investigated the potency of 4a–e to inhibit ABC transporters (ABCB1, ABCC1, and ABCG2) by determining their enhancement of reversal potency (ERP) values. ERP represents fold changes in the IC50 values of anticancer drugs in multidrug-resistant cancer sublines (ABCB1-overexpressing SW620D, SW620E, and SW620V; ABCC1-overexpressing SW620M; ABCG2-overexpressing SW620C and SW620Mito) exposed to a combination of the investigated compounds and anticancer agents at equimolar concentrations, compared with values obtained with drugs alone (Tables S2 and S3 and Figure ).
as §3
In total, 104 cells in 100 µL of complete medium were plated per well of a 96-well plate and left overnight to allow cells to adhere to the surface. Then, the cells were exposed to a desired concentration of tested compound(s). Stock solutions were prepared in DMSO and used immediately. The final DMSO concentration was constant and nontoxic (0.1% v/v). After 70-h incubation, neutral red was added to the final concentration of 1 mM. After another 2 h, the medium was aspirated, and cells were washed twice with PBS. Dye was released using 100 µL of a solubilizer (1% acetic acid in 50% ethanol) on an orbital shaker (10 min). Absorbance was read at 540 nm using EnVision Multilabel Plate Reader (Perkin Elmer, USA). Results were expressed as % of control. The IC50 parameters were calculated using GraphPad Prism version 10 (GraphPad Software, Boston, Massachusetts USA).
The enhancement of reversal potency (ERP) value determination
For MDR reversal assays, cytotoxic agents were co-administered with compounds 4a–4e at equimolar concentrations in a range of 10 nM to 100 µM. IC₅₀ values were determined in ABCB1-overexpressing SW620 cell line variants. The enhancement of reversal potency (ERP) was calculated using the following formula: ERP = IC₅₀(drug)MDR / IC₅₀(drug + compound)MDR. All experiments were performed in triplicate (n = 3).

[5] = system: SW620D cells; assay: Synergy determination (Bliss model, SynergyFinder), SW620D; conditions: drug doxorubicin + additive; for synergy score: Bliss model
Text: (§6) In an ideal setting, the effect of cell exposure to a combination of a chemotherapeutic and an MDR inhibitor should be synergistic. […] The highest synergy scores identified an optimal concentration range where the combination exerted its maximal effect. […] In cisplatin-resistant SW620C cells, the low or lack of synergy observed for most compounds may be due to the additive effects of cisplatin and 4 rather than a true synergistic interaction. […]
(§7) To evaluate the potential interactions between putative ABC inhibitors and anticancer drugs, we utilized the Bliss independence model, as implemented in the SynergyFinder web application.13, 14 Synergy scores and the most synergistic area scores were calculated based on the normalized dose–response matrices. A synergy score below −10 indicates likely […]
(§8) above 10 is indicative of likely synergistic interactions.
(§9) All experiments were performed at least three times, and the data were statistically analyzed

[6] = system: SW620Mito cells; assay: Synergy determination (Bliss model, SynergyFinder), SW620Mito; conditions: drug mitoxantrone + additive, SW602Mito; for synergy score: Bliss model
Text: as §6, §7, §8, §9

SMILES	survival rate ([1]; SW620, 1 μM)	survival rate ([1]; SW620, 10 μM)	pIC50 [1]	fold higher IC50 value than (S,Z)-4c ([2]; SW620C cells)	survival rate ([2]; 1 μM)	survival rate ([2]; 10 μM)	pIC50 [2]	survival rate ([3]; 1 μM)	survival rate ([3]; 10 μM)	pIC50 [3]	ERP value, doxorubicin + compound [4]	ERP = IC50(drug)MDR/IC50(drug+4)MDR [4]	most synergistic area score [5]	synergy score [5]	most synergistic area score [6]	synergy score [6]	Cytotoxic activity IC50 (95% CI) [2]
O=C1N/C(=C/c2cccc(-[c-]3cccc3)c2)C(=O)N2CCC[C@@H]12.[Fe+2].c1cc[cH-]c1 [(S,E)-4c]	95 ± 3.4%	95 ± 6.0%	< 4.00	13 fold	84 ± 0.7%	87 ± 1.1%	4.20	95 ± 2.1%	91 ± 0.8%	< 4.00	0.77	0.77	1.68	–3.01	0.67	–4.74	
O=C1N/C(=C/c2ccccc2)C(=O)N2CCC[C@@H]12 [(S,E)-4e]	96 ± 3.4%	96 ± 2.2%			96 ± 0.8%	95 ± 2.5%		96 ± 2.5%	99 ± 0.9%		0.77	0.77	0.00	–6.63	4.35	–0.12	
O=C1N/C(=C\[c-]2cccc2)C(=O)N2CCC[C@@H]12.[Fe+2].c1cc[cH-]c1 [(S,Z)-4a]	95 ± 2.2%	88 ± 6.0%	< 4.00		78 ± 1.8%	54 ± 3.1%	4.82	93 ± 0.8%	94 ± 3.0%	< 4.00	2.90	2.90	20.51	6.30	16.82	7.86	low-micromolar
O=C1N/C(=C\c2ccccc2-[c-]2cccc2)C(=O)N2CCC[C@@H]12.[Fe+2].c1cc[cH-]c1 [(S,Z)-4b]	91 ± 8.0%	84 ± 13%	< 4.00		83 ± 4.2%	57 ± 1.1%	4.92	93 ± 1.2%	99 ± 0.8%	< 4.00	2.34	2.34	11.62	3.96	19.63	11.11	low-micromolar
O=C1N/C(=C\c2ccc(-[c-]3cccc3)cc2)C(=O)N2CCC[C@@H]12.[Fe+2].c1cc[cH-]c1 [(S,Z)-4d]	97 ± 3.0%	97 ± 2.1%	< 4.00		96 ± 3.6%		< 4.00	97 ± 0.8%	94 ± 2.5%	< 4.00	2.86	2.86	17.81	7.37	27.66	17.05	
O=C1N/C(=C\c2ccccc2)C(=O)N2CCC[C@@H]12 [(S,Z)-4e]	94 ± 5.4%	92 ± 5.0%			95 ± 2.1%	95 ± 1.0%		94 ± 1.9%	96 ± 4.4%		0.70	0.70	0.00	–8.70	0.00	–3.17	
